One molecule from US9078917B2, “Extract of Phaleria macrocarpa as an antineoplastic, anti-inflammatory and antiangiogenic agent” (PT. Dexa Medica, priority 2008, dated 2015) can be followed below.

Holding throughout (assay type): cell-based
The subject of one assay is COX-1 mRNA expression. Description: COX-1 RT-PCR in serum-free MDA-MB-231 cells. Conditions: TPA alone versus control; FIG. 11. How it is done: (§1) MDA-MB-231 cells were cultured in supplemented medium, then the cells were incubated at 37° C., CO2 5%. MDA-MB-231 cells were cultured in 6-well plates. A day before treatment administration, medium was changed with serum-free medium for 24 hours. Treatment administration was done by administering various doses of Phaleria macrocarpa extract dissolved in organic solvent. RNA isolation was conducted using Trizol. The RNAs then were used in RT-PCR process using specific primer for each gene we used. RT-PCR reactions were performed in PCR machines with optimized conditions. RT-PCR products were analyzed using electrophoresis technique on agarose gel 2%, and quantified using Chemidoc.

In the next assay the test system is cPLA2 mRNA expression. Put plainly: cPLA2 RT-PCR in serum-free MDA-MB-231 cells. Conditions: TPA versus control, serum-free medium; FIG. 12. Here is the method: as §1
The next assay relates to VEGF-C mRNA expression. Description: VEGF-C RT-PCR in serum-free MDA-MB-231 cells. Conditions: TPA versus control, serum-free medium; FIG. 13. How it is done:
as §1

On to `CCCCCCCCCCCCCC(=O)O[C@@H]1[C@@H](C)[C@@]2(O)[C@@H](C=C(CO)C[C@]3(O)C(=O)C(C)=C[C@@H]23)[C@@H]2C(C)(C)[C@]12OC(C)=O` [TPA], for which the “mRNA expression of COX-1” value in the assay with COX-1 mRNA expression is recorded as “did not show any significant differences compared to control”. In addition, the “cPLA2 mRNA expression” value in the assay with cPLA2 mRNA expression is listed as “increase in cPLA2 mRNA expression significantly”. In addition, the “VEGF-C gene in mRNA level” value in the assay on VEGF-C mRNA expression was “significant increase of VEGF-C gene”.
